Laboratory results as given in PubChem BioAssay AID1963982 (Molecular Pharmacology Branch, DTP, NCI, 2024).

Tested on: 313798-341-R-J2-PDC spheroids, viability
Test: Anticancer human tumor 313798-341-R-J2-PDC patient-derived cervical squamous cell carcinoma cell line growth inhibition [PI3K]
Conditions: spheroids with HUVEC and MSC; for IC50: curve of first compound; for viability, T/C: stronger effect = lower value
From the text: Combinatorial screen of targeted agents with the PI3K inhibitors inavolisib, alpelisib, duvelisib, and copanlisib in multi-cell type tumor spheroids
A high-throughput screen of multi-cell type tumor spheroids was designed to identify active combinations of targeted small molecules and PI3K pathway inhibitors. Complex spheroids include a stromal component modeled by human endothelial cells (HUVEC) and fibroblasts modeled by human mesenchymal stem cells (MSCs). The concentration ranges selected for each drug and investigational agent were based upon clinically achievable concentrations if the clinical Cmax of the agent was known.
Compounds. The drugs and investigational agents: inavolisib (NSC800729), alpelisib (NSC765974), duvelisib (NSC772469), copanlisib (NSC816437), ipatasertib (NSC767898), afuresertib (NSC778305), talazoparib (NSC767125), sapanisertib (NSC764658), selumetinib (NSC741078), tovorafenib (DAY101, NSC766906), vemurafenib (NSC761431), ravoxertinib (NSC781343), sotorasib (NSC818433), MRTX1133 (NSC 836407), abemaciclib (NSC 768073), palbociclib (NSC758247), venetoclax (NSC 766270), SY5609 (NSC837396), enzalutamide (NSC755605), and darolutamide (NSC825331), were obtained from the National Cancer Institute (NCI) Developmental Therapeutics Program Chemical Repository. The FDA-approved anticancer drug set is available from the NCI Developmental Therapeutics Program. […] The stock solutions were prepared in dimethyl sulfoxide (DMSO, Sigma-Aldrich, St. Louis, MO, cat. D2650) at 800-fold the tested concentration and stored at -70 degrees C prior to their use. All drugs and investigational agents were tested over a range starting from a high concentration at or near the clinical Cmax and decreasing in half-log increments. If the clinical Cmax for an agent had not been determined, the highest concentration tested was 10 microM.
Cell Culture. All cells were maintained in an incubator at 37 degrees C and 5% CO2 with 95% humidity. The PDC lines were cultured according to standard operating procedures established by the NCI PDMR (https://pdmr.cancer.gov/sops/default.htm). All PDCs were thawed and cultured in Matrigel-coated flasks prepared with a working solution of 1X Ham's F-12 nutrient mix, without supplementation (Invitrogen, Waltham, MA, cat. 11765054), 100 U/mL penicillin-streptomycin (Invitrogen, cat. 15140122), and 2.5% Matrigel (Corning Inc., Corning, NY, cat. 354248) for the first three passages. The 354836-022-R-J1-PDC, 475296-252-R-J1-PDC, and 997726-040-R-J2-PDC lines were cultured in 6A media, which includes advanced DMEM/F-12 (Thermo Fisher Scientific, cat. 12634028), 10 mM HEPES (Thermo Fisher Scientific, cat. 15630080), 1X GlutaMAX supplement (Thermo Fisher Scientific, cat. 35050061), 0.1 mg/mL primocin (InvivoGen, San Diego, CA, cat. ant-pm-2), 10% defined fetal bovine serum, heat inactivated (HyClone Laboratories Inc., Logan, UT, cat. SH30070.03HI), 50% L-WRN conditioned media (ATCC, cat. CRL-3276), 1.25 mM N-Acetyl-L-cysteine (Sigma-Aldrich, cat. A9165), 10 mM nicotinamide (Sigma-Aldrich, cat. N0636), 1X B-27 supplement (Thermo Fisher Scientific, cat. 17504044), 1X N-2 supplement (Thermo Fisher Scientific, cat. 17502048), and 10 microM Y-27632 dihydrochloride (Tocris Bioscience, Bristol, United Kingdom, cat. 1254). The 624824-186-R-J2-PDC line was cultured in 6C/Colon 1B media, which includes all 6A media components plus 50 ng/mL human EGF recombinant protein (Thermo Fisher Scientific, cat. PHG0311). […]

[1] = second compound 0.0316 µM, first compound 0.0316 µM
[2] = second compound 0.0316 µM, first compound 0.1 µM
[3] = second compound 0.0316 µM, first compound 0.316 µM
[4] = second compound 0.0316 µM, first compound 1 µM
[5] = second compound 0.0316 µM, first compound 3.16 µM
[6] = second compound 0.0316 µM, first compound 10 µM
[7] = second compound 0.1 µM, first compound 0.0316 µM
[8] = second compound 0.1 µM, first compound 0.1 µM
[9] = second compound 0.1 µM, first compound 0.316 µM
[10] = second compound 0.1 µM, first compound 1 µM
[11] = second compound 0.1 µM, first compound 3.16 µM
[12] = second compound 0.1 µM, first compound 10 µM
[13] = second compound 0.316 µM, first compound 0.0316 µM
[14] = second compound 0.316 µM, first compound 0.1 µM
[15] = second compound 0.316 µM, first compound 0.316 µM
[16] = second compound 0.316 µM, first compound 1 µM
[17] = second compound 0.316 µM, first compound 3.16 µM
[18] = second compound 0.316 µM, first compound 10 µM
[19] = second compound 1 µM, first compound 0.0316 µM
[20] = second compound 1 µM, first compound 0.1 µM
[21] = second compound 1 µM, first compound 0.316 µM
[22] = second compound 1 µM, first compound 1 µM
[23] = second compound 1 µM, first compound 3.16 µM
[24] = second compound 1 µM, first compound 10 µM
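Also: spheroids exposed to compounds for seven days.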
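For viability, T/C in this document: 100% = DMSO vehicle control viability.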

In the case of `C=CC(=O)N1CCN(c2nc(=O)n(-c3c(C)ccnc3C(C)C)c3nc(-c4c(O)cccc4F)c(F)cc23)C(C)C1` (centres undefined) + CC(Nc1ncnc2nc[nH]c12)c1cc2cccc(Cl)c2c(=O)n1-c1ccccc1, the IC50 (second compound 0.0316 µM) is reported as over 10 µM, the IC50 (second compound 0.1 µM) is reported as over 10 µM and the IC50 (second compound 0.316 µM) is reported as over 10 µM. For the same compound, the IC50 (second compound 1 µM) was over 10 µM, the IC50 (second compound 3.16 µM) was over 10 µM and the IC50 (second compound 10 µM) was over 10 µM. The viability, T/C [1] was 112%, the viability, T/C [2] was 102% and the viability, T/C [3] was 113%. The viability, T/C [4] was 100%, the viability, T/C [5] was 103% and the viability, T/C [6] was 94.9%. It also gave a viability, T/C [7] of 89.4%, a viability, T/C [8] of 96.2% and a viability, T/C [9] of 99.1%. The viability, T/C [10] was 99.8%, the viability, T/C [11] was 102% and the viability, T/C [12] was 102%. It also gave a viability, T/C [13] of 106%, a viability, T/C [14] of 91.5% and a viability, T/C [15] of 106%. The viability, T/C [16] was 98.1%, the viability, T/C [17] was 104% and the viability, T/C [18] was 92.9%. For the same compound, the viability, T/C [19] was 102%, the viability, T/C [20] was 95.4% and the viability, T/C [21] was 102%. For the same compound, the viability, T/C [22] was 90.3%, the viability, T/C [23] was 98.2% and the viability, T/C [24] was 102%. The viability, T/C (second compound 3.16 µM, first compound 0.0316 µM) was 110%, the viability, T/C (second compound 3.16 µM, first compound 0.1 µM) was 94.1% and the viability, T/C (second compound 3.16 µM, first compound 0.316 µM) was 87.6%. It also gave a viability, T/C (second compound 3.16 µM, first compound 1 µM) of 99.5%, a viability, T/C (second compound 3.16 µM, first compound 3.16 µM) of 100% and a viability, T/C (second compound 3.16 µM, first compound 10 µM) of 91.9%. The viability, T/C (second compound 10 µM, first compound 0.0316 µM) was 87.7%, the viability, T/C (second compound 10 µM, first compound 0.1 µM) was 85.2% and the viability, T/C (second compound 10 µM, first compound 0.316 µM) was 98.2%. It also gave a viability, T/C (second compound 10 µM, first compound 1 µM) of 84.1%, a viability, T/C (second compound 10 µM, first compound 3.16 µM) of 90.4% and a viability, T/C (second compound 10 µM, first compound 10 µM) of 78.3%.

Work on `CC1(C)CCC(CN2CCN(c3ccc(C(=O)NS(=O)(=O)c4ccc(NCC5CCOCC5)c([N+](=O)[O-])c4)c(Oc4cnc5[nH]ccc5c4)c3)CC2)=C(c2ccc(Cl)cc2)C1` + COc1c(OCCCN2CCOCC2)ccc2c3n(c(=NC(=O)c4cnc(N)nc4)nc12)CCN3 yielded an IC50 (second compound 0.00316 µM) of over 10 µM, an IC50 (second compound 0.01 µM) of over 10 µM and an IC50 (second compound 0.0316 µM) of over 10 µM. It also gave an IC50 (second compound 0.1 µM) of under 0.0316 µM, an IC50 (second compound 0.316 µM) of under 0.0316 µM and an IC50 (second compound 1 µM) of under 0.0316 µM. The viability, T/C (second compound 0.00316 µM, first compound 0.0316 µM) was 98.3%, the viability, T/C (second compound 0.00316 µM, first compound 0.1 µM) was 107% and the viability, T/C (second compound 0.00316 µM, first compound 0.316 µM) was 113%. It also gave a viability, T/C (second compound 0.00316 µM, first compound 1 µM) of 101%, a viability, T/C (second compound 0.00316 µM, first compound 3.16 µM) of 87.7% and a viability, T/C (second compound 0.00316 µM, first compound 10 µM) of 102%. It also gave a viability, T/C (second compound 0.01 µM, first compound 0.0316 µM) of 105%, a viability, T/C (second compound 0.01 µM, first compound 0.1 µM) of 110% and a viability, T/C (second compound 0.01 µM, first compound 0.316 µM) of 88.7%. It also gave a viability, T/C (second compound 0.01 µM, first compound 1 µM) of 96.5%, a viability, T/C (second compound 0.01 µM, first compound 3.16 µM) of 66.1% and a viability, T/C (second compound 0.01 µM, first compound 10 µM) of 95.2%. For the same compound, the viability, T/C [1] was 70%, the viability, T/C [2] was 77.1% and the viability, T/C [3] was 69.3%. The viability, T/C [4] was 75.8%, the viability, T/C [5] was 47.4% and the viability, T/C [6] was 73.2%. For the same compound, the viability, T/C [7] was 44.4%, the viability, T/C [8] was 41.4% and the viability, T/C [9] was 40.3%. It also gave a viability, T/C [10] of 37.8%, a viability, T/C [11] of 35.1% and a viability, T/C [12] of 41.2%. The viability, T/C [13] was 14.6%, the viability, T/C [14] was 14.6% and the viability, T/C [15] was 16.5%. The viability, T/C [16] was 14.2%, the viability, T/C [17] was 13.3% and the viability, T/C [18] was 15%. The viability, T/C [19] was 9.63%, the viability, T/C [20] was 9.06% and the viability, T/C [21] was 11.1%. The viability, T/C [22] was 10.6%, the viability, T/C [23] was 12% and the viability, T/C [24] was 11.2%.
